“Also recorded” adds a separate entry of the source.
How the values were obtained:
[1] = system: freshly plated P2 mouse Schwann cells; experiment: Cell death in freshly plated P2 mouse Schwann cells (propidium iodide, DAPI, SOX10); assay type: cell-based; conditions: 250 μM 3-AP for 72 hours vs water
Method: (§1) Freshly plated mouse Schwann cells were obtained from P2 sciatic and brachial nerves. Nerves were digested with trypsin and collagenase, centrifuged and plated on laminin/Poly-L-lysine coated glass coverslips in defined medium as previously described (Arthur-Farraj et al., 2011).
Sciatic and optic nerves were dissected from Wt and Sarm1 KO mice and directly embedded in O.C.T. compound, without fixing, and stored at −80° C. until ready for cryosectioning. Cryosections at 5 μm thick were collected onto SuperFrost plus slides. These slides were post-fixed in 4% paraformaldehyde (PFA) at room temperature for 10 mins followed by three washes of 5 mins each with 1×PBS. The slides were then immersed in 100% methanol at −20° C. for 10 mins, followed by three washes of 5 mins each with 1×PBS. The slides were then blocked in 5% horse serum (HS)/0.2% Triton x-100/PBS for 30 mins at room temperature. Primary antibodies were diluted in blocking solution and slides were incubated overnight at 4° C. The following day, the slides were washed once for 5 mins with 1×PBS, twice for 5 mins with 0.1% tween/PBS and finally once again for 5 mins with 1×PBS before adding secondary antibodies. The corresponding secondary antibodies were diluted at 1:500 along with DAPI at 1:2000 for 2 hrs at room temperature and kept in the dark. […]

SARM1 [2] = molecular target: T1, SARM1 (Homo sapiens, UniProt Q6SZW1); conditions: cited from earlier work; for SARM1 activation in in vitro assays: Zhao et al., 2019; for SARM1 activation on binding in the allosteric site (ARM domain): Figley et al.
T1 sequence (Q6SZW1 28-724): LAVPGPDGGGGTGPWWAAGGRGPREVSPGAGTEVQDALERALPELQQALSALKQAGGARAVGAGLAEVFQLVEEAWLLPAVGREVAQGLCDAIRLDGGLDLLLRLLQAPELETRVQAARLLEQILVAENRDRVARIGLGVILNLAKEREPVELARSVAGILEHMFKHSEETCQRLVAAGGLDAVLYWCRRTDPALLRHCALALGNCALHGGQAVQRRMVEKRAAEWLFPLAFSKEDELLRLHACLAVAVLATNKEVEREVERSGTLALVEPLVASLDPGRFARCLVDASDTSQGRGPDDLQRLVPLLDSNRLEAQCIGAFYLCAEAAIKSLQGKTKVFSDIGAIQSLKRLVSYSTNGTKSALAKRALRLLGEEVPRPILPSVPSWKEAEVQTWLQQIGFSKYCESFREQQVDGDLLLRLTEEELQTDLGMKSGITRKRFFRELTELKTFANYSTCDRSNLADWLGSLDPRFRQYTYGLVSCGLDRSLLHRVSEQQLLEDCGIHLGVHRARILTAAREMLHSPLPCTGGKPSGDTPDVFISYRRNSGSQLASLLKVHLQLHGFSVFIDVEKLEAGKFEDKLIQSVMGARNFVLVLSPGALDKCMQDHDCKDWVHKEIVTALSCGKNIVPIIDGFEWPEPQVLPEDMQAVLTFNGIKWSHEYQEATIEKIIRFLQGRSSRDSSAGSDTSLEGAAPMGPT

[3] = system: expanded mouse Schwann cells; experiment: Cell death in expanded mouse Schwann cells passaged three times (phase contrast, propidium iodide); assay type: cell-based; conditions: 250 μM 3-AP for 72 hours vs water; Schwann cells passaged three times in proliferative medium
Method: Mouse SCs were passaged on PLL/laminin coated dishes in the presence of low serum (0.5% horse serum), 10 ng/ml Bneuregulin1 (BNRG1), and a low concentration cyclic adenosine monophosphate (CAMP) elevating signal, such as 2 μM forskolin or 100 μM dibutryl cAMP (Arthur-Farraj et al., 2011). Full protocol is described in (Mutschler et al., 2023).

Schwann cells = experiment: Intracellular NAD+ in Schwann cells (NAD-glo assay); assay type: cell-based, mouse; conditions: 250 μM 3AP, 72 hours, compared to DMSO control, listed as 3AP
Method: as §1
[…] Protein was extracted using Pierce™ IP Lysis Buffer supplemented with cOmplete™ Mini EDTA-free Protease Inhibitor Cocktail, and a BCA assay carried out to determine protein concentration. All samples were diluted to 0.5 μg/μL. The NAD-glo assay was performed according to manufacturer's instruction of the NAD^+/NADH-Glo™ assay by Promega (G9071). In short, 25 μL of sample were incubated with 12.5 μL 0.4M HCl at 60° C. for 15 min, before 12.5 μL 0.5M Tris base were added. 10 μL NAD^+ standards or sample were then mixed with 10 μL NAD-glo master mix (1 ml luciferin detection reagent, 5 μl reductase, 5 μl reductase substrate, 5 μl NAD^+ cycling enzyme, 25 μl NAD^+ cycling substrate) and incubated at RT for 40 min. Luminescence was read using a GloMax® Explorer microplate reader and NAD^+ concentrations determined relative to a NAD^+ standard curve.

neuronal cultures = conditions: Loreto et al., 2021, Wu et al.; cited from earlier work
SARM1 [4] = molecular target: T1, SARM1; conditions: Zhao et al., 2019; cited from earlier work

CC(=O)c1cccnc1 [3-AP, 3-acetylpyridine]
cell death judged by propidium iodide (P.I) and DAPI nuclear staining and SOX10 immunocytochemistry [1]: completely insensitive; also recorded: no cell death
SARM1 activity on interaction with active site (TIR domain) for base exchange reaction (SARM1 [2]; Loreto et al., 2021, Angeletti et al., 2022, Wu et al.): increase in SARM1 activity
cell death by propidium iodide (P.I.) staining and phase contrast [3]: susceptible to cellular dysfunction and death; also recorded: substantial increase in P.I. staining
Intracellular NAD+ levels (Schwann cells): do not change
effect of high dose on neuronal cultures (neuronal cultures): axonal degeneration and cell death within hours

NC(=O)c1ccc[n+]([C@@H]2O[C@H](COP(=O)(O)O)C(O)C2F)c1 (some centres unmarked) [CZ-17, ara-F-NMN]
SARM1 activation in in vitro assays (SARM1 [2]): can activate SARM1

NC(=O)c1ccc[n+]([C@@H]2O[C@H](COP(=O)(O)O)C(O)C2O)c1 (some centres unmarked) [NMN, Nicotinamide Mononucleotide]
SARM1 activation on binding in the allosteric site (ARM domain) (SARM1 [2]; Loreto et al., 2021): potently activates it

NC(=O)c1ccc[n+]([C@@H]2O[C@H](COP(O)(O)=S)C(O)C2O)c1 (some centres unmarked) [S-NMN]
SARM1 activation in in vitro assays (SARM1 [2]): can activate SARM1

O=C(NCc1ccc[n+](C2OC(COP(=O)([O-])O)C(O)C2O)c1)Nc1ccc([N+](=O)[O-])cc1 (centres unmarked) [VMN, Vacor Mononucleotide]
SARM1 activation on binding in the allosteric site (ARM domain) (SARM1 [2]; Loreto et al., 2021): potently activates SARM1

sulfo-ara-F-NMN [CZ-48]
SARM1 activation in in vitro assays (SARM1 [2]): can activate SARM1
SARM1 activation in cells (SARM1 [4]): can activate SARM1

— patent publication US20260166017A1, “SARM1 INHIBITORS FOR USE IN THERAPY AND COSMETICS” (priority 2022, published 2026)
